We go through 59 molecules from ChEMBL document CHEMBL3879911, “Heteroaryl compounds useful as inhibitors of E1 activating enzymes” (2008).

Where only a bound is given, the exact number is not on record here.

The assay addresses T1, NEDD8 activating enzyme (Homo sapiens, UniProt Q8TBC4).
T1 sequence (Q8TBC4 whole entry): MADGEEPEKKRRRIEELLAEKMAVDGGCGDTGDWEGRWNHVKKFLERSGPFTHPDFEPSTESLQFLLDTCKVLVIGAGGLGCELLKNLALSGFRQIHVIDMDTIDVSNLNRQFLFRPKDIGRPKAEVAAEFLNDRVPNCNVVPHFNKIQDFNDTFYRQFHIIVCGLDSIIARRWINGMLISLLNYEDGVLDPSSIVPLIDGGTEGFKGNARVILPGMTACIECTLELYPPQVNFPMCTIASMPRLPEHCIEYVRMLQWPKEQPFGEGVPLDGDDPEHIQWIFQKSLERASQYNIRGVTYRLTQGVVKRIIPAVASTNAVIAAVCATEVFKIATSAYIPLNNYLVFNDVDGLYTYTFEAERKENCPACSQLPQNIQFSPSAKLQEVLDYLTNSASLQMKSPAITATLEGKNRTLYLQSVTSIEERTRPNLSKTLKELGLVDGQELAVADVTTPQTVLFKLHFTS
T1 sequence (Q13564 whole entry): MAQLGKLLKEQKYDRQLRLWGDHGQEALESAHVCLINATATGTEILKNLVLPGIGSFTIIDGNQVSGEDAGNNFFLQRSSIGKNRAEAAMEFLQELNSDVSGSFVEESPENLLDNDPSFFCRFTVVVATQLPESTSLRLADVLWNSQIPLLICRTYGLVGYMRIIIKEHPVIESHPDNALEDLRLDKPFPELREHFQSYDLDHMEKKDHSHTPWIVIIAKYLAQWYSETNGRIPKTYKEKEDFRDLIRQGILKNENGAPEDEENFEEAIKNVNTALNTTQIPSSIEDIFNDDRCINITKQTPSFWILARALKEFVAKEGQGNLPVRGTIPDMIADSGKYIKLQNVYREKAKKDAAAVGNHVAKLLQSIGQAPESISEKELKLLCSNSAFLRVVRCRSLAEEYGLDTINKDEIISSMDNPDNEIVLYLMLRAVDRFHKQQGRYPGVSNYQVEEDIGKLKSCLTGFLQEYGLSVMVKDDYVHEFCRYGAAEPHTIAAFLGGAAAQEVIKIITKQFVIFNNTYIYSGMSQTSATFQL
Nature of the assay: Inhibition of recombinant human NAEalpha/N-terminal His-tagged NAEbeta expressed in baculovirus infected insect Sf9 cells using N-terminal FLAG tagged Nedd8 as substrate incubated for 105 mins in presence of N-terminal GST-tagged Ubc12 by FRET assay.
As to `NS(=O)(=O)OC[C@@H]1C[C@@H](Oc2cc(-c3ccccc3)ncn2)C[C@@H]1O`, the IC50 (as a rule, the concentration needed to halve the response being measured) lay within 500 to 10000 nM.
The same measure for `CO[C@H]1Cc2ccccc2[C@H]1Nc1ncnc(N[C@@H]2C[C@@H](COS(N)(=O)=O)[C@@H](O)C2)n1`: ≤ 500 nM.
Next, `NS(=O)(=O)OC[C@H]1C[C@@H](Nc2cc(N[C@@H]3CCc4ccccc43)ncn2)[C@H](O)[C@@H]1O`: ≤ 500 nM; `NS(=O)(=O)OC[C@@H]1C[C@@H](Nc2ncnc3[nH]c(-c4cccc5ccccc45)cc23)C[C@@H]1O`: ≤ 500 nM.
Next, `NS(=O)(=O)OC[C@H]1C[C@@H](Nc2ncnc3[nH]c(-c4ccccc4)nc23)[C@H](O)[C@@H]1O`: ≤ 500 nM; `COc1cccc(OC)c1-c1nc2c(N[C@@H]3C[C@@H](COS(N)(=O)=O)[C@@H](O)C3)ncnc2[nH]1`: ≤ 500 nM.
For `OC[C@@H]1C[C@@H](Nc2ncnc3[nH]c(-c4cccc5c4OCCO5)nc23)C[C@@H]1O`, the concentration for half-maximal inhibition (IC50) lay in the range of 500 to 10000 nM.
Next, `NS(=O)(=O)OC[C@@H]1C[C@@H](Nc2cc(N[C@H]3CCc4ccccc43)nc(=O)[nH]2)C[C@@H]1O`: 500 to 10000 nM.
Next, `CO[C@H]1CCc2ccccc2[C@H]1Nc1cc(O[C@@H]2C[C@@H](COS(N)(=O)=O)[C@@H](O)C2)ncn1`: ≤ 500 nM; `NS(=O)(=O)OC[C@@H]1C[C@@H](Oc2ccncn2)C[C@@H]1O`: > 10000 nM; `NS(=O)(=O)OC[C@@H]1C[C@@H](N2CCc3c(N[C@H]4CCc5ccccc54)ncnc32)C[C@@H]1O`: ≤ 500 nM.
In the case of `Cc1cccc(S(=O)(=O)c2nc3c(O[C@@H]4C[C@@H](COS(N)(=O)=O)[C@@H](O)C4)ncnc3[nH]2)c1`, the IC50 is ≤ 500 nM.
Next, `CC1(C)Cc2cccc(-c3nc4c(N[C@@H]5C[C@@H](COS(N)(=O)=O)[C@@H](O)C5)ncnc4[nH]3)c2O1`: ≤ 500 nM; `NS(=O)(=O)OC[C@@H]1C[C@@H](Nc2ncnc3[nH]c(-c4cccc(-c5ccccc5)c4)nc23)C[C@@H]1O`: ≤ 500 nM; `NS(=O)(=O)OC[C@@H]1C[C@@H](Oc2cc(OCc3cccc4ccccc34)ncn2)C[C@@H]1O`: 500 to 10000 nM.
Regarding `CO[C@H]1CC(C)(C)c2ccccc2[C@H]1Nc1cc(O[C@@H]2C[C@@H](COS(N)(=O)=O)[C@@H](O)C2)ncn1`, the half-inhibitory concentration (IC50) is ≤ 500 nM.
Turning to `NS(=O)(=O)OC[C@H]1C[C@@H](Nc2ccnc(C(=O)N[C@H]3CCc4ccccc43)c2)[C@H](O)[C@@H]1O`, the IC50 is > 10000 nM.
The same measure for `NS(=O)(=O)OC[C@@H]1C[C@@H](Oc2ncnc3nc(-c4cnn(Cc5ccccc5)c4)[nH]c23)C[C@@H]1O`: ≤ 500 nM; for `COc1ccc2c(c1)[C@@H](Nc1cc(O[C@@H]3C[C@@H](COS(N)(=O)=O)[C@@H](O)C3)ncn1)[C@@H](OC)CC2`: 500 to 10000 nM.
Consider `NS(=O)(=O)OC[C@@H]1C[C@@H](Cc2cc(N[C@H]3CCc4ccccc43)ncn2)C[C@@H]1O`, for which the IC50 lay in the range of 500 to 10000 nM.
The same measure for `NS(=O)(=O)OC[C@@H]1C[C@@H](Oc2ccnc(N[C@H]3CCc4ccccc43)c2)C[C@@H]1O`: 500 to 10000 nM.
The same measure for `NS(=O)(=O)OC[C@H]1C[C@@H](Nc2cc(N[C@H]3CCc4c(Cl)cccc43)ncn2)[C@H](O)[C@@H]1O`: ≤ 500 nM; for `CN(c1cc(N[C@H]2CCc3ccccc32)ncn1)[C@@H]1C[C@H](COS(N)(=O)=O)[C@@H](O)[C@H]1O`: ≤ 500 nM.
Next, `CO[C@H]1Cc2ccccc2[C@H]1Nc1ncnc(N[C@@H]2C[C@H](COS(N)(=O)=O)[C@@H](O)[C@H]2O)n1`: ≤ 500 nM; `NS(=O)(=O)OC[C@@H]1C[C@@H](Nc2ncnc3[nH]c(-c4cccc(Cl)c4)nc23)C[C@@H]1O`: ≤ 500 nM; `COc1ccc2c(c1)[C@H](Nc1cc(O[C@@H]3C[C@@H](COS(N)(=O)=O)[C@@H](O)C3)ncn1)[C@H](OC)CC2`: 500 to 10000 nM.
As to `CN(Cc1ccccc1)c1nccc(N[C@@H]2C[C@H](COS(N)(=O)=O)[C@@H](O)[C@H]2O)n1`, the IC50 is > 10000 nM.
The same measure for `NS(=O)(=O)OC[C@@H]1C[C@@H](Nc2ncnc3[nH]c(-c4ccccc4)cc23)C[C@@H]1O`: ≤ 500 nM; for `NS(=O)(=O)OC[C@H]1C[C@@H](Nc2nc(N[C@H]3CCc4ccccc43)ncc2F)[C@H](O)[C@@H]1O`: 500 to 10000 nM; for `CC1(C)C[C@H](Nc2cc(O[C@@H]3C[C@@H](COS(N)(=O)=O)[C@@H](O)C3)ncn2)c2ccccc21`: ≤ 500 nM.
Turning to `NS(=O)(=O)OC[C@@H]1C[C@@H](Nc2ncnc3[nH]c(-c4ccccc4OC(F)(F)F)nc23)C[C@@H]1O`, the IC50 was ≤ 500 nM.
Regarding `NS(=O)(=O)OC[C@@H]1C[C@@H](Oc2cc(N[C@H]3CCc4ccccc43)ncn2)C[C@@H]1O`, the IC50 was ≤ 500 nM.
As to `NS(=O)(=O)OC[C@H]1C[C@@H](Nc2cc(Nc3cccc4c3CCCC4)ncn2)[C@H](O)[C@@H]1O`, the IC50 is ≤ 500 nM.
Next, `NS(=O)(=O)OC[C@@H]1C[C@@H](Nc2ncnc(N[C@@H]3c4ccccc4CC3(F)F)n2)C[C@@H]1O`: ≤ 500 nM; `NS(=O)(=O)OC[C@@H]1C[C@@H](Nc2ncnc3[nH]c(Cc4ccccc4)nc23)C[C@@H]1O`: ≤ 500 nM; `CO[C@H]1c2ccccc2C[C@H]1Oc1cc(O[C@@H]2C[C@@H](COS(N)(=O)=O)[C@@H](O)C2)ncn1`: 500 to 10000 nM.
Next, `NS(=O)(=O)OC[C@@H]1C[C@@H](Nc2ncnc3[nH]c(-c4ccccc4Oc4ccccc4)nc23)C[C@@H]1O`: ≤ 500 nM.
The same measure for `NS(=O)(=O)OC[C@@H]1C[C@@H](O)[C@H](Nc2cc(N[C@H]3CCc4ccccc43)ncn2)C1`: > 10000 nM; for `CO[C@@H]1Cc2ccccc2[C@@H]1Oc1cc(O[C@@H]2C[C@@H](COS(N)(=O)=O)[C@@H](O)C2)ncn1`: 500 to 10000 nM.
Turning to `CO[C@H]1Cc2ccccc2[C@H]1Nc1cc(O[C@@H]2C[C@@H](CNS(N)(=O)=O)[C@@H](O)C2)ncn1`, the concentration for half-maximal inhibition (IC50) is ≤ 500 nM.
Next, `CC1(C)C[C@H](Nc2cc(N[C@@H]3C[C@H](COS(N)(=O)=O)[C@@H](O)[C@H]3O)ncn2)c2ccccc21`: ≤ 500 nM.
Take `NS(=O)(=O)OC[C@@H]1C[C@@H](Oc2cc(NCc3cccc4ccccc34)ncn2)C[C@@H]1O`: the IC50 is ≤ 500 nM.
As to `CN(C)C(=O)[C@H]1Cc2ccccc2[C@H]1Nc1cc(O[C@@H]2C[C@@H](COS(N)(=O)=O)[C@@H](O)C2)ncn1`, the IC50 was in the range of 500 to 10000 nM.
Regarding `NS(=O)(=O)OC[C@H]1C[C@@H](NC(=O)c2ccncc2)[C@H](O)[C@@H]1O`, the IC50 was in the range of 500 to 10000 nM.
Regarding `CO[C@H]1Cc2ccccc2[C@H]1Oc1cc(O[C@@H]2C[C@@H](COS(N)(=O)=O)[C@@H](O)C2)ncn1`, the half-maximal inhibitory concentration (IC50) lay within 500 to 10000 nM.
Next, `NS(=O)(=O)OC[C@@H]1C[C@@H](Oc2cc(OCc3ccc(Cl)cc3)ncn2)C[C@@H]1O`: > 10000 nM; `Cn1c(-c2ccccc2)nc2ncnc(N[C@@H]3C[C@@H](COS(N)(=O)=O)[C@@H](O)C3)c21`: 500 to 10000 nM.
Next, `NS(=O)(=O)OC[C@H]1C[C@@H](Nc2cc(NCC3CCCCC3)ncn2)[C@H](O)[C@@H]1O`: ≤ 500 nM; `NS(=O)(=O)OC[C@H]1C[C@@H](Nc2ccnc(C(=O)N3CCc4ccccc43)c2)[C@H](O)[C@@H]1O`: > 10000 nM; `NS(=O)(=O)OC[C@@H]1C[C@@H](Nc2ncnc3nc(-c4cccc5cccnc45)[nH]c23)C[C@@H]1O`: ≤ 500 nM.
Next, `CC1CC(Nc2nccc(N[C@@H]3C[C@H](COS(N)(=O)=O)[C@@H](O)[C@H]3O)n2)c2ccccc21` (some centres undefined): ≤ 500 nM; `NS(=O)(=O)OC[C@@H]1C[C@@H](Nc2ncnc3[nH]c(-c4ccccc4OCc4ccccc4)nc23)C[C@@H]1O`: ≤ 500 nM; `Cc1cccc(-c2nc3c(N[C@@H]4C[C@@H](COS(N)(=O)=O)[C@@H](O)C4)ncnc3[nH]2)c1C`: ≤ 500 nM.
Regarding `Cc1nc(NCc2ccccc2)cc(N[C@@H]2C[C@H](COS(N)(=O)=O)[C@@H](O)[C@H]2O)n1`, the IC50 is > 10000 nM.
Turning to `CO[C@@H]1c2ccccc2C[C@@H]1Oc1cc(O[C@@H]2C[C@@H](COS(N)(=O)=O)[C@@H](O)C2)ncn1`, the half-maximal inhibitory concentration (IC50) was in the range of 500 to 10000 nM.
Next, `Cc1nc(N[C@H]2CCc3ccccc32)cc(N[C@@H]2C[C@H](COS(N)(=O)=O)[C@@H](O)[C@H]2O)n1`: ≤ 500 nM; `NS(=O)(=O)OC[C@H]1C[C@@H](Nc2cc(N[C@H]3CCc4cc(F)c(F)cc43)ncn2)[C@H](O)[C@@H]1O`: ≤ 500 nM.
Next, `CC1(C)C[C@H](Nc2cc(O[C@@H]3C[C@@H](COS(N)(=O)=O)[C@@H](O)C3)ccn2)c2ccc(Cl)cc21`: 500 to 10000 nM.
In the case of `NS(=O)(=O)OC[C@@H]1C[C@@H](Nc2ncnc3[nH]c(-c4ccccc4C(F)(F)F)nc23)C[C@@H]1O`, the IC50 was ≤ 500 nM.
